Test results as given in patent publication EP4703354A1, “COMPOUND AS CCR6 ANTAGONIST, AND PHARMACEUTICAL COMPOSITION AND USE THEREOF” (Wuhan Createrna Science and Technology Co.,Ltd., priority 2023, dated 2024).

Experiments:
[1] = target: T1, human CCR6 (Homo sapiens, UniProt P51684); assay: human CCR6 calcium flux activity (FLIPR, HEK293 cells stably expressing human CCR6, CCL20 stimulation); type: cell-based; conditions: for IC50: HEK293 cells stably expressing human CCR6, EC80 human MIP-3 alpha/CCL20, read-out: CCR6 inhibitory activity, IC50; for CCR6 selectivity: ratio of CXCR2 IC50 to CCR6 IC50
T1 construct: expressed in transfected cells; host or cells: HEK293
T1 sequence (P51684 1-374): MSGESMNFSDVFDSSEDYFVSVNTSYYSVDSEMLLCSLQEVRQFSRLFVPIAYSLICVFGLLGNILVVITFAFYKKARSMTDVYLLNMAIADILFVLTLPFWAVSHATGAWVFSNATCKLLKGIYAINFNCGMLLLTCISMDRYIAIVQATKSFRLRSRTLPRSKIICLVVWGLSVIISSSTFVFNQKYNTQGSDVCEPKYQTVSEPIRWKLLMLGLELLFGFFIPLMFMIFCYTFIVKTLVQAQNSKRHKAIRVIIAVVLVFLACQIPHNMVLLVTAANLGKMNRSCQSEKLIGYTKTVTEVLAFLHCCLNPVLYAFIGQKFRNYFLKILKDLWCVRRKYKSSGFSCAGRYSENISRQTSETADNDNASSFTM
In short: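 Compounds preincubated with Fluo-4 Direct-loaded cells 50 min at 37 °C, then 10 min at room temperature, before CCL20 challenge at EC80. Fluorescence (ex 494/em 516 nm) recorded 90 s; max−min signal gives inhibition, four-parameter fit yields IC50.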

[2] = in vitro liver microsome metabolic stability, mouse; type: in vitro ADME; conditions: Mouse liver microsomes, 37°C
Protocol: Preparation of working solutions for test compounds and standards: An appropriate amount of the compound was accurately weighed and dissolved in a corresponding volume of suitable solvent to prepare 1 mM stock solutions of the test compounds and standards. The stock solutions were then diluted with appropriate solvent to obtain 100 µM working solutions of the test compounds, ensuring that the DMSO content in the working solutions remained below 10%.
The internal standard compound testosterone (or tolbutamide) and its corresponding solvent, internal standard concentration (200 ng/mL), were selected based on the properties of the test compound.
• Solution A: 0.1 mol/L K2HPO4 (2.28 g K2HPO4·3H2O was dissolved in 100 mL of double-distilled water); • Solution B: 0.1 mol/L KH2PO4 (1.36 g KH2PO4 was dissolved in 100 mL of double-distilled water); • 80.2 mL of Solution A and 19.8 mL of Solution B were mixed thoroughly, and the pH was adjusted to 7.4.
37.5 mg of glycine was weighed, dissolved in 100 mL of ultrapure water, and adjusted to pH 8.0 with NaOH.
1.25 mg of glucose-6-phosphate dehydrogenase (400 U/mg) was weighed (the specific amount weighed was calculated based on the activity of the purchased glucose-6-phosphate dehydrogenase), dissolved in 1 mL of glycine buffer to a concentration of 500 U/mL, aliquoted into 20 µL per tube, and stored at -20°C for future use.
7.83 mg of NADP, 0.06 mL of D-glucose-6-phosphate (260 mg/mL), and 10.17 mg of MgCl2·6H2O were precisely weighed.
The mixture was dissolved in 1 mL of pure water. The cofactor ratio composition: NADP 10 mM, D-glucose-6-phosphate 60 mM, MgCl2·6H2O 50 mM.
The reaction system (taking a 500 µL system as an example) was composed of the following solution ratios: 416.5 µL phosphate buffer, 5 µL compound working solution, 25 µL liver microsomes, 3.5 µL glucose-6-phosphate dehydrogenase, and 50 µL cofactor solution. The total incubation volume could be adjusted according to experimental requirements.
416.5 µL of phosphate buffer was taken, 25 µL of liver microsomes, 3.5 µL of glucose-6-phosphate dehydrogenase, and 50 µL of cofactor solution were added, vortexed twice to mix, and preincubated in a 37°C water bath for 5 minutes. Then, 5 µL of the test compound working solution was added, vortexed twice to mix, each time for 2-3 seconds, and placed in a 37°C water bath to initiate the reaction, with two parallel samples set. At 0.5 min, 1 min, 2 min, 5 min, 15 min, and 30 min after the reaction, 50 µL of the mixture was taken and added to centrifuge tubes containing 200 µL of 0°C pre-cooled internal standard working solution to terminate the reaction, vortexed for 1 minute to mix, and centrifuged at 13,000 rpm for 10 minutes in a 4°C pre-cooled high-speed centrifuge. The supernatant was collected for analysis. After the compound was added and vortex-mixed, 50 µL of the mixture was rapidly transferred to a centrifuge tube containing 200 µL of a pre-cooled (0°C) internal standard working solution to terminate the reaction, vortex-mixed for 1 minute, and used as the relative zero-point sample (relative to the standard group). The sample was then placed into a 37°C water bath to initiate the reaction, and timing was started.
The sample analysis of the test compound was performed using the liquid chromatography-tandem mass spectrometry (LCMS/MS) method. The semi-quantitative determination was performed using the ratio of the analyte peak area to the internal standard peak area. The retention times of the analyte and internal standard, chromatogram acquisition, and chromatogram integration were processed using Analyst software.
The in vitro elimination rate constant k of the test compound and the control compound was determined by converting the ratio of the peak area of the test compound to the internal standard into the remaining rate, and T1/2 was then calculated according to the following formula. T1/2 = (Ln2)/(k) = (0.693)/(k) [formula] Table 3. […]

With `CN(C)C(=O)c1nccc(Nc2c(N[C@@H](C#CC3CCC3)[C@]3(C)CC(F)(F)CO3)c(=O)c2=O)c1O` (single isomer, unassigned) [110A] the IC50 [1] was 9.3 nM, the CCR6 selectivity [1] was 32.0 and the “Liver microsome T1-2 (min) Mouse” value [2] was 1597.63 min.
With `CN(C)C(=O)c1nccc(Nc2c(N[C@@H](c3nc(Cl)ccc3F)[C@@]3(C)CC(F)(F)CO3)c(=O)c2=O)c1O` [068B, 4-((2-(((S)-(6-chloro-3-fluoropyridin-2-yl)((R)-4,4-difluoro-2-methyltetrahydrofuran-2-yl)methyl)amino)-3,4-dioxocyclobut-1-en-1-yl)amino)-3-hydroxy-N,N-dimethylpicolinamide] the IC50 [1] was 5.3 nM, the CCR6 selectivity [1] was 1440.2 and the “Liver microsome T1-2 (min) Mouse” value [2] was 65.23 min.
Work on `Cc1cc(F)cnc1[C@H](Nc1c(Nc2ccnc(C(=O)N(C)C)c2O)c(=O)c1=O)[C@]1(C)CC(F)(F)CO1` [093A, 4-((2-(((S)-((S)-4,4-difluoro-2-methyltetrahydrofuran-2-yl)(5-fluoro-3-methylpyridin-2-yl)methyl)amino)-3,4-dioxocyclobut-1-en-1-yl)amino)-3-hydroxy-N,N-dimethylpicolinamide] yielded an IC50 [1] of 17.1 nM and a CCR6 selectivity [1] of over 5848.0.
`CN(C)C(=O)c1nccc(Nc2c(N[C@@H](c3cccc(Cl)n3)C3(C)CCCC3)c(=O)c2=O)c1O` [compound 003, (R)-4-((2-(((6-chloropyridin-2-yl)(1-methylcyclopentyl)methyl)amino)-3,4-dioxocyclobut-1-en-1-yl)amino)-3-hydroxy-N,N-dimethylpicolinamide] showed an IC50 [1] of 22.1 nM and a CCR6 selectivity [1] of 100.0.
With `CN(C)C(=O)c1nccc(Nc2c(N[C@@H](c3ccc(F)cn3)C3(C)CCCC3)c(=O)c2=O)c1O` [compound 005, (R)-4-((2-(((5-fluoropyridin-2-yl)(1-methylcyclopentyl)methyl)amino)-3,4-dioxocyclobut-1-en-1-yl)amino)-3-hydroxy-N,N-dimethylpicolinamide] the IC50 [1] was 10.9 nM, the CCR6 selectivity [1] was 115.0 and the “Liver microsome T1-2 (min) Mouse” value [2] was 1188.6 min.
With `CN(C)C(=O)c1nccc(Nc2c(N[C@@H](c3ncc(F)cc3F)C3(C)CCCC3)c(=O)c2=O)c1O` [compound 009, (R)-4-((2-(((3,5-difluoropyridin-2-yl)(1-methylcyclopentyl)methyl)amino)-3,4-dioxocyclobut-1-en-1-yl)amino)-3-hydroxy-N,N-dimethylpicolinamide] the IC50 [1] was 8 nM, the CCR6 selectivity [1] was 303.4 and the “Liver microsome T1-2 (min) Mouse” value [2] was 178.84 min.
With `Cc1cccnc1[C@H](Nc1c(Nc2ccc(Cl)c(C(=O)N(C)C)c2O)c(=O)c1=O)C1(C)CCCC1` [compound 063, (R)-6-chloro-2-hydroxy-N,N-dimethyl-3-((2-(((1-methylcyclopentyl)(3-methylpyridin-2-yl)methyl)amino)-3,4-dioxocyclobut-1-en-1-yl)amino)benzamide] the IC50 [1] was 11.7 nM, the CCR6 selectivity [1] was 1310.8 and the “Liver microsome T1-2 (min) Mouse” value [2] was at least 120 min.
For `CN(C)C(=O)c1nccc(Nc2c(N[C@@H](c3cccc(CF)n3)C3(C)CCCC3)c(=O)c2=O)c1O` [compound 108, (R)-4-((2-(((6-(fluoromethyl)pyridin-2-yl)(1-methylcyclopentyl)methyl)amino)-3,4-dioxocyclobut-1-en-1-yl)amino)-3-hydroxy-N,N-dimethylpicolinamide], the IC50 [1] was 3.9 nM and the CCR6 selectivity [1] was 189.6.
`CC#C[C@H](Nc1c(Nc2ccnc(C(=O)N(C)C)c2O)c(=O)c1=O)C1(C)CCCC1` [compound 113, (R)-3-hydroxy-N, N-dimethyl-4-((2-((1-(1-methylcyclopentyl)but-2-yn-1-yl)amino)-3,4-dioxocyclobut-1-en-1-yl)amino)picolinamide] gave an IC50 [1] of 49.8 nM and a CCR6 selectivity [1] of 29.7.
With `CC#C[C@H](Nc1c(Nc2ccc(Cl)c(C(=O)N(C)C)c2O)c(=O)c1=O)C1(C)CCCC1` [compound 114, (R)-6-chloro-2-hydroxy-N, N-dimethyl-3-((2-((1-(1-methylcyclopentyl)but-2-yn-1-yl)amino)-3,4-dioxocyclobut-1-en-1-yl)amino)benzamide] the IC50 [1] was 55.3 nM, the CCR6 selectivity [1] was 26.2 and the “Liver microsome T1-2 (min) Mouse” value [2] was 361.28 min.
For `CN(C)C(=O)c1nccc(Nc2c(N[C@@H](C#CC3CC3)C3(C)CCCC3)c(=O)c2=O)c1O` [compound 115, (R)-4-((2-((3-cyclopropyl-1-(1-methylcyclopentyl)prop-2-yn-1-yl)amino)-3,4-dioxocyclobut-1-en-1-yl)amino)-3-hydroxy-N,N-dimethylpicolinamide], the IC50 [1] was 47.6 nM, the CCR6 selectivity [1] was 11.1 and the “Liver microsome T1-2 (min) Mouse” value [2] was 1889.54 min.
